As a reminder, the Ki is the dissociation constant of the complex between target and ligand, obtained from inhibition or displacement.

This is an account of results in article PMC12120022, “Discovery and chemical optimisation of a potent, Bi-cyclic antimicrobial inhibitor of Escherichia coli PBP3” (Communications Biology, 2025).

Where a SMILES comes first, the peptide text is derived from it. Where only a bound is given, the exact number is not on record here.

This assay deals with T1, EcPBP3 (Escherichia coli, UniProt P0AD68).
T1 construct: For assays, selections and SPR a construct with residues 60–588 which has the N-terminal domain, but not the transmembrane helix, was used; made in house
T1 sequence (P0AD68 60-588): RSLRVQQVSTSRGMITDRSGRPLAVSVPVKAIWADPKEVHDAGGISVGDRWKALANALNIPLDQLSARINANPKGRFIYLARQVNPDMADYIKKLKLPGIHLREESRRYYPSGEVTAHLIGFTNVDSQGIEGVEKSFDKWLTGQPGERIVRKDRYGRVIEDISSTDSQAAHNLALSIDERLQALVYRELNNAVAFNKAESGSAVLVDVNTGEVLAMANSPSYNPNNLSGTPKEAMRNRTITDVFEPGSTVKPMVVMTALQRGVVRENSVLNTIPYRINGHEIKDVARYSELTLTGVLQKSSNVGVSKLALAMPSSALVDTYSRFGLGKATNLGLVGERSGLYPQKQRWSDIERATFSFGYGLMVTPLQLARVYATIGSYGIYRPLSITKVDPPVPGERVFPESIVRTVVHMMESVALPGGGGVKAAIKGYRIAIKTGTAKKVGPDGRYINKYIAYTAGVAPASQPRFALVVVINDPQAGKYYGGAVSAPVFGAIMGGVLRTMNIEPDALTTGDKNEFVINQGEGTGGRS
The assay is described as follows: Fluorescence polarisation competition assay with fluorescent Bicycle tracer (tracer 1 / BCY12820). Type of assay: binding. Conditions: protein 9.4 nM sets sensitivity limit, top concentration 5 µM, read-out: Ki (nM) by fluorescence polarisation with tracer 1 (BCY12820 as tracer), Geometric mean (Lower 95% CI; Upper 95% CI, n=number of values). As for the experimental part: Competition fluorescence polarisation assays were run by observing the fluorescence polarisation of a fluorescent “tracer” Bicycle molecule which competes against an unlabelled peptide for binding to the EcPBP3 target. 10 µL of protein (9.4 nM) was mixed with either 5 µL of peptide or 5 µL of buffer and then the assay was initiated by the addition of 10 µL of tracer (1 nM) (final volume 25 µL), in a black 384 low bind, low volume plate (Corning). The buffer was 10 mM HEPES (Sigma), 2% (v/v) glycerol (Sigma), 300 mM NaCl (Sigma), adjusted to pH 8. The plate was incubated for 1 h at 25 °C and then read in a PHERAstar FS (BMG) using with an “FP 485 520 520” optic module (excitation 485 nm, emission 520 nm). The gain was determined immediately prior to the read on a tracer-only well.
Dotmatics (Dotmatics) workflows performing the above calculations were used to process the data. Values quoted are the geometric means of at least 2 repeats.
As for `CC(C)[C@@H]1NC(=O)[C@H](Cc2c[nH]c3ccccc23)NC(=O)[C@@H]2CCCN2C(=O)[C@@H]2CSCCC(=O)N3CN(CN(C3)C(=O)CCSC[C@H](NC(=O)[C@H](C)N)C(=O)N[C@@H](CO)C(=O)N[C@@H](Cc3ccccc3)C(=O)N[C@@H](Cc3c[nH]cn3)C(=O)N[C@@H](CCCCNC(=N)N)C(=O)N2)C(=O)CCSC[C@@H](C(=O)N[C@@H](C)C(N)=O)NC(=O)CNC(=O)[C@H](CCC(=O)O)NC1=O` [Peptide 37] (HELM PEPTIDE1{A.C.S.F.H.[N=C(N)NCCCC[C@H](N[*:1])C(=O)[*:2]].C.P.W.V.E.G.C.A.[am]}|CHEM1{[O=C(CC[*:1])N1CN(C(=O)CC[*:2])CN(C(=O)CC[*:3])C1]}$PEPTIDE1,CHEM1,2:R3-1:R1|PEPTIDE1,CHEM1,7:R3-1:R2|PEPTIDE1,CHEM1,13:R3-1:R3$$$V2.0), the Ki stood at 31.5 nM. Regarding `CC(C)[C@@H]1NC(=O)[C@H](Cc2c[nH]c3ccccc23)NC(=O)[C@@H]2CCCN2C(=O)[C@@H]2CSCCC(=O)N3CN(CN(C3)C(=O)CCSC[C@H](NC(=O)[C@H](C)N)C(=O)NCC(=O)N[C@@H](Cc3ccccc3)C(=O)N3CCC[C@H]3C(=O)N[C@@H](CCCCNC(=N)N)C(=O)N2)C(=O)CCSC[C@@H](C(=O)N[C@@H](C)C(N)=O)NC(=O)CNC(=O)[C@H](CCC(=O)O)NC1=O` [Peptide 26] (HELM PEPTIDE1{A.C.G.F.P.[N=C(N)NCCCC[C@H](N[*:1])C(=O)[*:2]].C.P.W.V.E.G.C.A.[am]}|CHEM1{[O=C(CC[*:1])N1CN(C(=O)CC[*:2])CN(C(=O)CC[*:3])C1]}$PEPTIDE1,CHEM1,2:R3-1:R1|PEPTIDE1,CHEM1,7:R3-1:R2|PEPTIDE1,CHEM1,13:R3-1:R3$$$V2.0), the Ki turned out to be 17.1 nM.

Turning to `CC(C)[C@@H]1NC(=O)[C@H](Cc2c[nH]c3ccccc23)NC(=O)[C@@H]2CCCN2C(=O)[C@@H]2CSCCC(=O)N3CN(CN(C3)C(=O)CCSC[C@@H](C(=O)N[C@@H](C)C(N)=O)NC(=O)[C@H](CC(N)=O)NC(=O)[C@H](CCC(=O)O)NC1=O)C(=O)CCSC[C@H](NC(=O)[C@H](C)N)C(=O)N[C@@H](CO)C(=O)N[C@@H](Cc1ccccc1)C(=O)N1CCC[C@H]1C(=O)N[C@@H](CCCCNC(=N)N)C(=O)N2` [Peptide 52] (HELM PEPTIDE1{A.C.S.F.P.[N=C(N)NCCCC[C@H](N[*:1])C(=O)[*:2]].C.P.W.V.E.N.C.A.[am]}|CHEM1{[O=C(CC[*:1])N1CN(C(=O)CC[*:2])CN(C(=O)CC[*:3])C1]}$PEPTIDE1,CHEM1,2:R3-1:R1|PEPTIDE1,CHEM1,7:R3-1:R2|PEPTIDE1,CHEM1,13:R3-1:R3$$$V2.0), the Ki is under 9 nM. In the case of `CC(C)[C@@H]1NC(=O)[C@H](Cc2c[nH]c3ccccc23)NC(=O)[C@@H]2CCCN2C(=O)[C@@H]2CSCCC(=O)N3CN(CN(C3)C(=O)CCSC[C@H](NC(=O)[C@H](C)N)C(=O)N[C@@H](CCC(N)=O)C(=O)N[C@@H](Cc3ccccc3)C(=O)N3CCC[C@H]3C(=O)N[C@@H](CCCCNC(=N)N)C(=O)N2)C(=O)CCSC[C@@H](C(=O)N[C@@H](C)C(N)=O)NC(=O)CNC(=O)[C@H](CCC(=O)O)NC1=O` [Peptide 30] (HELM PEPTIDE1{A.C.Q.F.P.[N=C(N)NCCCC[C@H](N[*:1])C(=O)[*:2]].C.P.W.V.E.G.C.A.[am]}|CHEM1{[O=C(CC[*:1])N1CN(C(=O)CC[*:2])CN(C(=O)CC[*:3])C1]}$PEPTIDE1,CHEM1,2:R3-1:R1|PEPTIDE1,CHEM1,7:R3-1:R2|PEPTIDE1,CHEM1,13:R3-1:R3$$$V2.0) it was under 9 nM; in that of `CC(C)[C@@H]1NC(=O)[C@H](Cc2c[nH]c3ccccc23)NC(=O)[C@@H]2CCCN2C(=O)[C@@H]2CSCCC(=O)N3CN(CN(C3)C(=O)CCSC[C@H](NC(=O)[C@H](C)N)C(=O)N[C@@H](CO)C(=O)N[C@@H](Cc3ccccc3)C(=O)N[C@@H](Cc3ccc(O)cc3)C(=O)N[C@@H](CCCCNC(=N)N)C(=O)N2)C(=O)CCSC[C@@H](C(=O)N[C@@H](C)C(N)=O)NC(=O)CNC(=O)[C@H](CCC(=O)O)NC1=O` [Peptide 34] (HELM PEPTIDE1{A.C.S.F.Y.[N=C(N)NCCCC[C@H](N[*:1])C(=O)[*:2]].C.P.W.V.E.G.C.A.[am]}|CHEM1{[O=C(CC[*:1])N1CN(C(=O)CC[*:2])CN(C(=O)CC[*:3])C1]}$PEPTIDE1,CHEM1,2:R3-1:R1|PEPTIDE1,CHEM1,7:R3-1:R2|PEPTIDE1,CHEM1,13:R3-1:R3$$$V2.0), 27.1 nM. Then `CC(C)[C@@H]1NC(=O)[C@H](Cc2c[nH]c3ccccc23)NC(=O)[C@@H]2CCCN2C(=O)[C@@H]2CSCCC(=O)N3CN(CN(C3)C(=O)CCSC[C@@H](C(=O)N[C@@H](C)C(N)=O)NC(=O)[C@H](Cc3c[nH]cn3)NC(=O)[C@H](CCC(=O)O)NC1=O)C(=O)CCSC[C@H](NC(=O)[C@H](C)N)C(=O)N[C@@H](CO)C(=O)N[C@@H](Cc1ccccc1)C(=O)N1CCC[C@H]1C(=O)N[C@@H](CCCCNC(=N)N)C(=O)N2` [Peptide 53] (HELM PEPTIDE1{A.C.S.F.P.[N=C(N)NCCCC[C@H](N[*:1])C(=O)[*:2]].C.P.W.V.E.H.C.A.[am]}|CHEM1{[O=C(CC[*:1])N1CN(C(=O)CC[*:2])CN(C(=O)CC[*:3])C1]}$PEPTIDE1,CHEM1,2:R3-1:R1|PEPTIDE1,CHEM1,7:R3-1:R2|PEPTIDE1,CHEM1,13:R3-1:R3$$$V2.0), with under 9 nM. Then `CC(C)[C@@H]1NC(=O)[C@H](Cc2c[nH]c3ccccc23)NC(=O)[C@@H]2CCCN2C(=O)[C@@H]2CSCCC(=O)N3CN(CN(C3)C(=O)CCSC[C@H](NC(=O)[C@H](C)N)C(=O)N[C@@H](CO)C(=O)N[C@@H](Cc3ccccc3)C(=O)N[C@@H]([C@@H](C)O)C(=O)N[C@@H](CCCCNC(=N)N)C(=O)N2)C(=O)CCSC[C@@H](C(=O)N[C@@H](C)C(N)=O)NC(=O)CNC(=O)[C@H](CCC(=O)O)NC1=O` [Peptide 36] (HELM PEPTIDE1{A.C.S.F.T.[N=C(N)NCCCC[C@H](N[*:1])C(=O)[*:2]].C.P.W.V.E.G.C.A.[am]}|CHEM1{[O=C(CC[*:1])N1CN(C(=O)CC[*:2])CN(C(=O)CC[*:3])C1]}$PEPTIDE1,CHEM1,2:R3-1:R1|PEPTIDE1,CHEM1,7:R3-1:R2|PEPTIDE1,CHEM1,13:R3-1:R3$$$V2.0), with 75 nM; and `CC[C@H](C)[C@@H]1NC(=O)[C@H](Cc2c[nH]c3ccccc23)NC(=O)[C@@H]2CCCN2C(=O)[C@@H]2CSCCC(=O)N3CN(CN(C3)C(=O)CCSC[C@H](NC(=O)[C@H](C)N)C(=O)N[C@@H](CO)C(=O)N[C@@H](Cc3ccccc3)C(=O)N3CCC[C@H]3C(=O)N[C@@H](CCCCNC(=N)N)C(=O)N2)C(=O)CCSC[C@@H](C(=O)N[C@@H](C)C(N)=O)NC(=O)CNC(=O)[C@H](CCC(=O)O)NC1=O` [Peptide 45] (HELM PEPTIDE1{A.C.S.F.P.[N=C(N)NCCCC[C@H](N[*:1])C(=O)[*:2]].C.P.W.I.E.G.C.A.[am]}|CHEM1{[O=C(CC[*:1])N1CN(C(=O)CC[*:2])CN(C(=O)CC[*:3])C1]}$PEPTIDE1,CHEM1,2:R3-1:R1|PEPTIDE1,CHEM1,7:R3-1:R2|PEPTIDE1,CHEM1,13:R3-1:R3$$$V2.0), with under 9 nM; and `CC(C)[C@@H]1NC(=O)[C@H](Cc2c[nH]c3ccccc23)NC(=O)[C@@H]2CCCN2C(=O)[C@@H]2CSCCC(=O)N3CN(CN(C3)C(=O)CCSC[C@H](NC(=O)[C@H](C)N)C(=O)N[C@@H](CO)C(=O)N[C@@H](Cc3ccccc3)C(=O)N[C@@H](CO)C(=O)N[C@@H](CCCCNC(=N)N)C(=O)N2)C(=O)CCSC[C@@H](C(=O)N[C@@H](C)C(N)=O)NC(=O)CNC(=O)[C@H](CCC(=O)O)NC1=O` [Peptide 35] (HELM PEPTIDE1{A.C.S.F.S.[N=C(N)NCCCC[C@H](N[*:1])C(=O)[*:2]].C.P.W.V.E.G.C.A.[am]}|CHEM1{[O=C(CC[*:1])N1CN(C(=O)CC[*:2])CN(C(=O)CC[*:3])C1]}$PEPTIDE1,CHEM1,2:R3-1:R1|PEPTIDE1,CHEM1,7:R3-1:R2|PEPTIDE1,CHEM1,13:R3-1:R3$$$V2.0), with 53.4 nM.

With `CC(C)[C@@H]1NC(=O)[C@H](Cc2c[nH]c3ccccc23)NC(=O)[C@@H]2CCCN2C(=O)[C@@H]2CSCCC(=O)N3CN(CN(C3)C(=O)CCSC[C@H](NC(=O)[C@H](C)N)C(=O)N[C@@H](CC(N)=O)C(=O)N[C@@H](Cc3ccccc3)C(=O)N3CCC[C@H]3C(=O)N[C@@H](CCCCNC(=N)N)C(=O)N2)C(=O)CCSC[C@@H](C(=O)N[C@@H](C)C(N)=O)NC(=O)CNC(=O)[C@H](CCC(=O)O)NC1=O` [Peptide 29] (HELM PEPTIDE1{A.C.N.F.P.[N=C(N)NCCCC[C@H](N[*:1])C(=O)[*:2]].C.P.W.V.E.G.C.A.[am]}|CHEM1{[O=C(CC[*:1])N1CN(C(=O)CC[*:2])CN(C(=O)CC[*:3])C1]}$PEPTIDE1,CHEM1,2:R3-1:R1|PEPTIDE1,CHEM1,7:R3-1:R2|PEPTIDE1,CHEM1,13:R3-1:R3$$$V2.0), the Ki was under 9 nM. Then `CC(C)[C@@H]1NC(=O)[C@H](Cc2c[nH]c3ccccc23)NC(=O)[C@@H]2CCCN2C(=O)[C@@H]2CSCCC(=O)N3CN(CN(C3)C(=O)CCSC[C@H](NC(=O)[C@H](C)N)C(=O)N[C@@H](CO)C(=O)N[C@@H](Cc3c[nH]cn3)C(=O)N3CCC[C@H]3C(=O)N[C@@H](CCCCNC(=N)N)C(=O)N2)C(=O)CCSC[C@@H](C(=O)N[C@@H](C)C(N)=O)NC(=O)CNC(=O)[C@H](CCC(=O)O)NC1=O` [Peptide 32] (HELM PEPTIDE1{A.C.S.H.P.[N=C(N)NCCCC[C@H](N[*:1])C(=O)[*:2]].C.P.W.V.E.G.C.A.[am]}|CHEM1{[O=C(CC[*:1])N1CN(C(=O)CC[*:2])CN(C(=O)CC[*:3])C1]}$PEPTIDE1,CHEM1,2:R3-1:R1|PEPTIDE1,CHEM1,7:R3-1:R2|PEPTIDE1,CHEM1,13:R3-1:R3$$$V2.0), with 115 nM.
